Laboratory results taken from patent publication US10266539B2, “Polymorph of Syk inhibitors” (Gilead Connecticut, Inc., priority 2013, dated 2019).

How the values were obtained:
[1] = Moisture sorption isotherms (Example 6B, Hiden IGASorp / SMS DVS Intrinsic); assay type: physicochemical; conditions: for Water absorbed up to 90% RH: 25 °C
Method: Sorption isotherms were obtained using a Hiden IGASorp moisture sorption analyser, controlled by CFRSorp software. The sample temperature was maintained at 25° C. by a Huber re-circulating water bath. The humidity was controlled by mixing streams of dry and wet nitrogen, with a total flow rate of 250 ml/min. The relative humidity (RH) was measured by a calibrated Vaisala RH probe (dynamic range of 0-95% RH), located near the sample. The weight change, (mass relaxation) of the sample as a function of % RH was constantly monitored by the microbalance (accuracy±0.001 mg).
10-20 mg of sample was placed in a tared mesh stainless steel basket under ambient conditions. The sample was loaded and unloaded at 40% RH and 25° C. (typical room conditions).
A moisture sorption isotherm was performed as outlined in Table 1 below (2 scans giving 1 complete cycle). The standard isotherm was performed at 25° C. at 10% RH intervals over a 0-90% RH range.
The software uses a least squares minimization procedure together with a model of the mass relaxation, to predict an asymptotic value. The measured mass relaxation value must be within 5% of that predicted by the software, before the next % RH value is selected. The minimum equilibration time was set to 1 hour and the maximum to 4 hours. […] The sample was recovered after completion of the isotherm and re-analyzed by XRPD.
In other cases, sorption isotherms were also obtained using a SMS DVS Intrinsic moisture sorption analyser, controlled by DVS Intrinsic Control software v1.0.1.2 (or v 1.0.1.3). […] The humidity was controlled by mixing streams of dry and wet nitrogen, with a total flow rate of 200 ml/min The relative humidity was measured by a calibrated Rotronic probe (dynamic range of 1.0-100% RH), located near the sample. The weight change, (mass relaxation) of the sample as a function of % RH was constantly monitored by the microbalance (accuracy±0.005 mg).
5-20 mg of sample was placed in a tared mesh stainless steel basket under ambient conditions. […] The sample was recovered after completion of the isotherm and re-analyzed by XRPD.

Solubility in water = assay type: physicochemical; conditions: final pH of the water solubility sample
[2] = PK study in pentagastrin- or famotidine-pretreated dogs; conditions: famotidine-pretreated dogs, similar tablet formulation
Method: Pentagastrin pretreatment (6 μg/kg intramuscular injection 30 minutes prior to test formulation dosing) in fasted dogs was used to simulate fasting gastric pH in humans. Famotidine pretreatment (20 mg orally 1 hour prior to test formulation dosing) in fasted dogs was used to simulate human gastric pH when acid suppressant was co-dosed with test formulation. The tablets of the mono-MSA salt or bis-MSA salt of a compound of Formula I (conventional tablet and spray dried formulation) were orally administered followed by a 30 mL water flush.

[3] = Hygroscopicity by dynamic vapor sorption (Example 6A, Q5000SA); assay type: physicochemical; conditions: after full sorption/desorption cycle
Method: Hygroscopicity of polymorph Form 3 and polymorph Form 7 at 25° C. was determined by dynamic vapor sorption (DVS) using an automated vapor sorption balance (Q5000SA; TA instruments, New Castle, Del.). Hygroscopicity was studied as a function of relative humidity (RH) over the range of 0 to 90%. Approximately 10 mg of solid sample was placed directly onto the 13 mm quartz DVS sample cup and equilibrated at 0% relative humidity (RH) until a constant weight was achieved. After equilibration, the RH was increased in increments of 10% to reach 90%, and the water sorption was monitored. For desorption, the relative humidity was deceased in a similar manner to accomplish a full sorption/desorption cycle.
For all experiments, the instrument was operated in dm/dt mode (mass variation over time) to determine when equilibrium was reached. A fixed dm/dt value of 0.0010% min^−1 was selected for all RH segments. A maximum stage of 360 minutes and a minimum stage of 60 minutes were selected for these experiments.

| Water absorbed up to 90% RH ([1]; listed as Polymorph Form 7) | final pH (Solubility in water) | Increase of AUC0-24 compared to the mono-MSA salt formulation [2] | Form by XRPD at the end of the DVS experiment [3] | Water absorbed up to 90% RH ([1]; listed as Form 3) | Form by XRPD after DVS analysis ([1]; after isotherm) | Compound |
| --- | --- | --- | --- | --- | --- | --- |
| ~21 wt. % | – | – | – | – | – | c1cn2cc(-c3ccc4cn[nH]c4c3)nc(Nc3ccc(N4CCOCC4)cc3)c2n1 [polymorph Form 7] |
| – | (final pH <1.5) | more than 10 fold | converted to Form 7 | ~20 wt. % | converted to Form 7 | c1cn2cc(-c3ccc4cn[nH]c4c3)nc(Nc3ccc(N4CCOCC4)cc3)c2n1 [polymorph Form 3] |
